Several values for one entry are separate records, joined by “and”; a condition that tells them apart may be missing. Equal values may be shown once.
Legend:
[1] = tested on: Candida albicans ATCC 1031; assay: Disinfection time test (Essai 2, Tables D-F), reaction at 22°, subcultures 72 h at 37°C; format: cell-based
Experimental: Un autre essai a été réalisé à partir des solutions suivantes : • 100 ml d'une solution à 0,1 % de digluconate de chlorhexidine (pH 6) et • 100 ml d'une solution à 0,1 % de Bardac 22®.
Les tests ont été réalisés conformément au protocole décrit dans le Chapitre I/2.1 et 2.2 de Richtlinien für die Prüfung und Bewertung chemischer Desinfektionsverfahren der DGHM, Stand 1.1., 1981).
Les tests dont les résultats sont illustrés aux Tableaux D, E et F ont été réalisés à une température de réaction de 22° avec une incubation des sous-cultures 72 heures à 37°C avec comme substances inactivantes : Tween® 80 3 % + saponine 3 % + cystéine 0,1 % + histidine 0,1 %; ces Tableaux illustrent respectivement l'activité bactéricide et fongicide d'une solution aqueuse à 0,1 % de digluconate de chlorhexidine, d'une solution aqueuse à 0,1 % de Bardac 22® et d'un mélange à part égale des deux composés et montrent l'action des antiseptiques précités, en fonction du temps de contact, et font apparaître la même synergie d'action de l'association que ci-dessus, dans la mesure où l'association des deux composés permet de diminuer significativement leur concentration, pour l'obtention d'un même effet. TABLEAU D

[2] = tested on: Herpès virus Hominis type 1, souche Bey (HSV1); assay: Immediate virucidal action on HSV1, plaque count on Vero cells; format: cell-based; conditions: Bardac® 0,02 %; 3 boîtes de culture; J4
Experimental: Il s'agit d'une souche d'Herpès virus Hominis type 1, souche Bey (HSV1), elle est entretenue sur cellules fibroblastiques humaines ou sur cellules KB et a subi un nombre de passages importants, sur l'un ou l'autre type de cellules.
On utilise un lot viral congelé à -80°C après obtention d'un effet cytopathique ayant atteint au moins 80 % des cellules, sans une centrifugation préalable, qui aurait débarrassé l'inoculum de la majorité des débris cellulaires; en effet, il apparaît que l'infectivité du virus disparaît très rapidement lorsqu'il est extracellulaire, et, en conséquence, on est plus près de la réalité de l'infection in vivo lorsqu'on utilise un lot viral dans lequel des virions peuvent encore se trouver dans des débris cellulaires.
Ce lot a été titré, après répartition en aliquots de 0,5 ml, conservés à -80°C, sur cellules fibroblastiques humaines : • . par dilution de 10 en 10 et inoculations de 8 tubes de cultures par dilution : 10^6/ml; • . par inoculation de cultures en boîtes de Pétri (35 mm) et adjonction de sérum anti-HSV1 dans le surnageant pour neutraliser les virions qui pourraient être libérés dans le milieu liquide, permettant ainsi de compter des plages : 100 à 150 unités formant plages par boîte inoculée avec 0,5 ml d'une solution virale diluée à 10^-4. […]

virus HBV = assay: In vivo protection test in ducks (I.V.), inoculum 2.10^7 vge/canard; conditions: Bardac® 0,1 %, voie I.V.
Source text: II - Essais in vivo chez le canard (voie I.V.).
• Bardac® 0,02 % (dose 100 fois inférieure à celle qui est efficace in vitro pour le Bardac® seul) - CHG 0,025 % contre un inoculum à 2.10^7 vge/canard protège 3/3 canards (figure 2). • Bardac® 0,1 % (dose 5 fois plus forte que dans une composition conforme à l'invention pour obtenir une protection équivalente) contre un inoculum à 2.10^7 vge/canard (vge = viral genoma equivalent) protège 4/4 canards (figure 3).
La figure 1 correspond à un témoin d'infection : 4/4 canards inoculés avec 2.10^7 vge développent une virémie dont le pic se situe entre 5 et 10 jours.

[3] = tested on: antigène du virus de l'hépatite B (AgHBs); assay: In vitro degradation of hepatitis B virus antigen (AgHBs): virucide + patient human serum (1/1000); format: biochemical; conditions: Bardac® 0,2 %
Source text: I - Action sur la dégradation in vitro de l'antigène du virus de l'hépatite B (AgHBs) du virus de l'hépatite B : virucide + sérum humain de malade (1/1000ème).

Q: What does the source list for `[H]/N=C(\N/C(=N/[H])NCCCCCCNC(=N)NC(=N)Nc1ccc(Cl)cc1)Nc1ccc(Cl)cc1` [Chlorhexidine, digluconate de chlorhexidine, reference compound]?
A: croissance ([1]; Conc. 0,1 % (vol/vol), 1 min): +; croissance ([1]; Conc. 0,1 % (vol/vol), 3 min): +; croissance ([1]; Conc. 0,1 % (vol/vol), 5 min): +; croissance ([1]; Conc. 0,1 % (vol/vol), 15 min): +; croissance ([1]; Conc. 0,1 % (vol/vol), 30 min): +; croissance ([1]; Conc. 0,1 % (vol/vol), 60 min): +; croissance ([1]; Conc. 0,05 % (vol/vol), 1 min): +; croissance ([1]; Conc. 0,5 % (vol/vol), 1 min): +; croissance ([1]; Conc. 0,05 % (vol/vol), 3 min): +; croissance ([1]; Conc. 0,5 % (vol/vol), 3 min): +; croissance ([1]; Conc. 0,05 % (vol/vol), 5 min): +; croissance ([1]; Conc. 0,5 % (vol/vol), 5 min): +; croissance ([1]; Conc. 0,05 % (vol/vol), 15 min): +; croissance ([1]; Conc. 0,5 % (vol/vol), 15 min): +; croissance ([1]; Conc. 0,05 % (vol/vol), 30 min): +; croissance ([1]; Conc. 0,5 % (vol/vol), 30 min): +; croissance ([1]; Conc. 0,05 % (vol/vol), 60 min): +; croissance ([1]; Conc. 0,5 % (vol/vol), 60 min): +; croissance ([1]; Conc. 1 % (vol/vol), 1 min): +; croissance ([1]; Conc. 1 % (vol/vol), 3 min): +; croissance ([1]; Conc. 1 % (vol/vol), 5 min): +; croissance ([1]; Conc. 1 % (vol/vol), 15 min): +; croissance ([1]; Conc. 1 % (vol/vol), 30 min): +; croissance ([1]; Conc. 1 % (vol/vol), 60 min): -; croissance ([1]; Conc. 5 % (vol/vol), 1 min): +; croissance ([1]; Conc. 5 % (vol/vol), 3 min): +; croissance ([1]; Conc. 5 % (vol/vol), 5 min): +; croissance ([1]; Conc. 5 % (vol/vol), 15 min): +; croissance ([1]; Conc. 5 % (vol/vol), 30 min): -; croissance ([1]; Conc. 5 % (vol/vol), 60 min): -; croissance ([1]; Conc. 10 % (vol/vol), 1 min): +; croissance ([1]; Conc. 10 % (vol/vol), 3 min): +; croissance ([1]; Conc. 10 % (vol/vol), 5 min): +; croissance ([1]; Conc. 10 % (vol/vol), 15 min): +; croissance ([1]; Conc. 10 % (vol/vol), 30 min): -; croissance ([1]; Conc. 10 % (vol/vol), 60 min): -; croissance ([1]; Conc. 25 % (vol/vol), 1 min): +; croissance ([1]; Conc. 25 % (vol/vol), 3 min): +; croissance ([1]; Conc. 25 % (vol/vol), 5 min): +; croissance ([1]; Conc. 25 % (vol/vol), 15 min): -; croissance ([1]; Conc. 25 % (vol/vol), 30 min): -; croissance ([1]; Conc. 25 % (vol/vol), 60 min): -

Q: With `CCCCCCCCCC[N+](C)(C)CCCCCCCCCC` [Bardac®, chlorure de didécyldiméthylammonium] as the compound, how does the “Nombre d'unités formant plage par millilitre de virus dilué à 10^-4” value [2] read?
A: 30/125/45 and 26/17/20

Q: What about the croissance ([1]; Conc. 0,1 % (vol/vol), 1 min) of the same compound?
A: +

Q: What about the croissance ([1]; Conc. 0,1 % (vol/vol), 3 min) of the same compound?
A: +

Q: What about the croissance ([1]; Conc. 0,1 % (vol/vol), 5 min) of the same compound?
A: +

Q: And the croissance ([1]; Conc. 0,1 % (vol/vol), 15 min)?
A: +

Q: What about the croissance ([1]; Conc. 0,1 % (vol/vol), 30 min) of the same compound?
A: +

Q: And the croissance ([1]; Conc. 0,1 % (vol/vol), 60 min)?
A: +

Q: And the croissance ([1]; Conc. 0,05 % (vol/vol), 1 min)?
A: +

Q: What about the croissance ([1]; Conc. 0,5 % (vol/vol), 1 min) of the same compound?
A: +

Q: And the croissance ([1]; Conc. 0,05 % (vol/vol), 3 min)?
A: +

Q: What about the croissance ([1]; Conc. 0,5 % (vol/vol), 3 min) of the same compound?
A: +

Q: What about the croissance ([1]; Conc. 0,05 % (vol/vol), 5 min) of the same compound?
A: +

Q: What about the croissance ([1]; Conc. 0,5 % (vol/vol), 5 min) of the same compound?
A: +

Q: And the croissance ([1]; Conc. 0,05 % (vol/vol), 15 min)?
A: +

Q: And the croissance ([1]; Conc. 0,5 % (vol/vol), 15 min)?
A: +

Q: What about the croissance ([1]; Conc. 0,05 % (vol/vol), 30 min) of the same compound?
A: +

Q: And the croissance ([1]; Conc. 0,5 % (vol/vol), 30 min)?
A: +

Q: And the croissance ([1]; Conc. 0,05 % (vol/vol), 60 min)?
A: +

Q: And the croissance ([1]; Conc. 0,5 % (vol/vol), 60 min)?
A: +

Q: And the croissance ([1]; Conc. 1 % (vol/vol), 1 min)?
A: +

Q: What about the croissance ([1]; Conc. 1 % (vol/vol), 3 min) of the same compound?
A: +

Q: And the croissance ([1]; Conc. 1 % (vol/vol), 5 min)?
A: +

Q: What about the croissance ([1]; Conc. 1 % (vol/vol), 15 min) of the same compound?
A: +

Q: What about the croissance ([1]; Conc. 1 % (vol/vol), 30 min) of the same compound?
A: -

Q: What about the croissance ([1]; Conc. 1 % (vol/vol), 60 min) of the same compound?
A: -

Q: And the croissance ([1]; Conc. 5 % (vol/vol), 1 min)?
A: +

Q: And the croissance ([1]; Conc. 5 % (vol/vol), 3 min)?
A: +

Q: And the croissance ([1]; Conc. 5 % (vol/vol), 5 min)?
A: -

Q: And the croissance ([1]; Conc. 5 % (vol/vol), 15 min)?
A: -

Q: And the croissance ([1]; Conc. 5 % (vol/vol), 30 min)?
A: -

Q: And the croissance ([1]; Conc. 5 % (vol/vol), 60 min)?
A: -

Q: And the croissance ([1]; Conc. 10 % (vol/vol), 1 min)?
A: -

Q: What about the croissance ([1]; Conc. 10 % (vol/vol), 3 min) of the same compound?
A: -

Q: And the croissance ([1]; Conc. 10 % (vol/vol), 5 min)?
A: -

Q: And the croissance ([1]; Conc. 10 % (vol/vol), 15 min)?
A: -

Q: And the croissance ([1]; Conc. 10 % (vol/vol), 30 min)?
A: -

Q: And the croissance ([1]; Conc. 10 % (vol/vol), 60 min)?
A: -

Q: What about the croissance ([1]; Conc. 25 % (vol/vol), 1 min) of the same compound?
A: -

Q: What about the croissance ([1]; Conc. 25 % (vol/vol), 3 min) of the same compound?
A: -

Q: What about the croissance ([1]; Conc. 25 % (vol/vol), 5 min) of the same compound?
A: -

Q: And the croissance ([1]; Conc. 25 % (vol/vol), 15 min)?
A: -

Q: And the croissance ([1]; Conc. 25 % (vol/vol), 30 min)?
A: -

Q: And the croissance ([1]; Conc. 25 % (vol/vol), 60 min)?
A: -

Q: What about the “canards protégés” value (virus HBV) of the same compound?
A: 4/4

Q: What about the “AgHBs résiduel (ratio)” value [3] of the same compound?
A: 1,35
